Reference: patent publication US12350247B2, “Use of APE1/Ref-1 inhibitors for treatment of retinal diseases” (Indiana University Research and Technology Corporation, priority 2017, dated 2025)
Like-named read-outs stand apart in the source and are kept apart here.

Legend:
[1] = tested on: mouse C26 colon cancer cells; test: Colon cancer orthotopic tumors, oxaliplatin with APX3330; type: in vivo, mice
Description: Immune competent mice were injected with mouse C26 colon cancer cells in the caecum (FIG. 29A). Animals were treated with either oxaliplatin or oxaliplatin with APX3330 and tumor size determined compared to vehicle controls (FIG. 29B).

[2] = tested on: HCT-116 colon cancer cells; test: Killing of colon cancer cells by APX3330 combined with CPI-613 (Example 4); type: cell-based, human; settings: 0.2, 0.8, 1.6, 3.1, 6.3 μM APX3330 combined with 100 and 75 μM CPI-613
Description: Standard 3D co-culture assays as described in Example 2 were used to evaluate the cytotoxicity of the combination on tumor cells as well as cancer-associated fibroblasts.
As shown in FIGS. 15A-15C, there was greater than 50% killing of HCT-116 colon cancer cells using 0.2, 0.8, 1.6, 3.1, 6.3 μM APX3330 when combined with 100 and 75 μM CPI-613.

[3] = tested on: human adenocarcinoma colon suspension cell line Colo-201; test: Alamar blue cytotoxicity combination assay (CalcuSyn); type: cell-based
Description: Colo-201 (Yunhua Liu) was seeded in a 96-well tissue culture plate at 2000 cells/well in RPMI+Sodium Pyruvate+10% FBS and grown overnight at 37° C., 5% CO2. 2× Drug Media RPMI+Sodium Pyruvate+5% FBS was added at dosages of APX3330 (Apexian) in a 5-point spread from 75 uM to 6.3 uM and spiked with CPI-613 (Apexbio Technology) at 75 uM, or 50 uM, or alone for single agent. Cells were incubated 72 hours at 37° C., 5% CO2 and then 10% Alamar blue fluorescent cell viability indicator (INVITROGEN™) was added directly to plate. Indicator was incubated 4 hours at 37° C., 5% CO2, and then read on a fluorescent reader (SYNERGY™ H4 BioTek). […] FIG. 31D depicts Chou-Talalay Index (CI) of dose combinations (CalcuSyn). FIG. 31E depicts synergistic drug combinations (CalcuSyn) of APX3330 spiked with 50 uM CPI-613 or 75 uM CPI-613. […] Data shown is the average of 3 separate cytotoxicity assays; each assay normalized to media only control.

[4] = tested on: pancreatic tumor; test: Xenograft model, APX3330 with gemcitabine; type: in vivo; settings: APX3330 (25 mg/kg) combined with gemcitabine (35 mg/kg)
From the text: The data in FIG. 14C is tumor volume at sacrifice. Combination therapy was well-tolerated.

[5] = tested on: Pa03C and Panc10.05 tumor cells; test: 3D spheroid / co-culture model of pancreatic cancer (both patient lines)
Description: Pa03C cells were plated into 3D cultures alone or with CAF19 cells.
Pa03C and Panc10.05 tumor cells were grown in 3D cultures in the presence of CAFs. Spheroids were treated with either single agents, vehicle (DMSO) or combination of targeted agents on days 4 and 8 (black arrows), and the intensity of tumor (red) and CAF (green) were quantified as described in Example 7 every 3-4 days in culture.

[6] = tested on: murine KPC cells; test: Alamar blue proliferation-based assay; type: cell-based; settings: 3 days incubation
[7] = tested on: 10.05 cells; test: Intracellular pH assay (pHrodo Red AM) in hypoxic 10.05 cells; type: cell-based, human; settings: 0.2% O2 48 hrs; up to 50 μM APX3330, 100 μM SLC-0111; 8 APX2009, 5 μM APX2014
From the text: Therefore, the APX3330 analogs, APX2009 and APX2014, were used to determine whether APE1/Ref-1 redox inhibition alone can shift intracellular pH in hypoxic PDAC cells given a sufficiently potent inhibitor.

[8] = tested on: CAFs (CAF19 cells); test: 3D spheroid co-culture, CAF signal (green channel); settings: for CC50: read-out: LC50, 3D Cultures, CAFs
[9] = tested on: Pa03C; test: Monolayer cytotoxicity under hypoxia (alamarBlue); type: cell-based; settings: Homo sapiens, N = 3, read-out: LC50 (the source's name)
From the text: (§1) To determine target selectivity, analogs of APX3330, APX2009 and APX2014, and an analog of SLC-0111, FC12-531A, were used.

[10] = tested on: Panc10.05; test: Monolayer cytotoxicity under hypoxia (alamarBlue); type: cell-based; settings: Homo sapiens, Panc1005, Panc10.05, N = 3, read-out: LC50 (the source's name)
From the text: as §1

[11] = tested on: Panc10.05; test: 3D tumor spheroid culture growth (fluorescence intensity); settings: read-out: LC50; 3D Cultures, Tumor Alone, Panc10.05, D12 curves

## CCCCCCCCC/C(=C\C1=C(C)C(=O)C(OC)=C(OC)C1=O)C(=O)O [APX3330]
[1]; CRC mice
  oxaliplatin induced loss of myenteric neurons in the colon: alleviated oxaliplatin induced loss of myenteric neurons
[1]; oxaliplatin with APX3330
  tumor cell killing vs oxaliplatin alone: dramatic and significantly increased tumor cell killing
[2]
  killing of HCT-116 colon cancer cells: greater than 50%
[3]; APX3330 75 uM and 50 uM spiked with 50 uM CPI-613, 72 hours
  drug combination synergy (Chou-Talalay, CalcuSyn): synergy was observed
[3]; all but one APX3330 dosage (6.3 uM), spiked with 75 uM CPI-613, 72 hours
  drug combination synergy (Chou-Talalay, CalcuSyn): Synergy was observed
[4]
  tolerability of combination therapy: well-tolerated
  tumor volume at sacrifice vs single agents alone: significantly decreased tumor volume
[5]; 3D co-cultures with CAFs, APX3330 at 50 μM, APX2009 at 10 μM, APX2014 at 0.6 μM
  tumor cell growth in combination with SLC-0111: significantly attenuated tumor cell growth
[5]; 3D spheroid model (tumor and CAF)
  tumor killing in combination with napabucasin: synergistic tumor killing effect
[5]; treated on days 4 and 8, FIG. 17
  single agent efficacy on 3D spheroid growth: reduced cell growth, cell proliferation
[6]
  cytotoxicity in combination with Napabucasin: enhancement of Napa-induced cytotoxicity
[7]
  effect on intracellular pH as single agent: did not affect
[8]; APX3330 alone, co-culture with Pa03C
  area of the CAFs: reduction in the area of the CAFs
[8]; co-culture with Pa03C, D12 curves
  CC50: 57.3 µM
[8]; co-culture with Panc10.05, D12 curves
  CC50: 59.4 µM
[9]
  CC50: 50.2 µM
[10]
  CC50: 40.3 µM
[11]
  CC50: 44.5 µM
